The values that follow come from patent publication EP2955179A1, “CONDENSED HETEROCYCLIC COMPOUND” (Sumitomo Chemical Company Limited, priority 2013, dated 2014).

Type in all cases: in vivo
Assay [1] concerns Nilaparvata lugens. The assay is described as follows: Test Example 4: drench at foot of rice seedling, Nilaparvata lugens larvae released. Conditions: Nilaparvata lugens, soil, 144 h; active ingredient 500 ppm, 5 ml drench at foot of rice seedling, 7 days at 25°C, then third-fourth instar larvae kept 6 days; read-out: control value.
The test system of a further assay is Plutella xylostella. The assay is described as follows: Test Example 6: spray on cabbage, Plutella xylostella larvae released. To be noted: 120 h, active ingredient 500 ppm, 20 mL/cup sprayed on cabbage, second instar larvae, 25°C for 5 days, read-out: death rate. On the procedure:
On the other hand, on cabbage at the third leaf stage planted in a polyethylene cup was sprayed, at a rate 20 mL/cup, the test drug solution. After the drug solution was dried, the foliage part was cut off, and then placed in a 50 mL volume cup. Five second instar larvae of Plutella xylostella were released into the cup, and the cup was sealed with a lid. After the cup was kept at 25°C for 5 days, the number of dead insects was counted. The death rate was calculated according to the following equation. Death rate (%) = (Number of dead insects/Number of tested insects) × 100 [formula]

For the next assay, the system named is Blattella germanica. The assay is described as follows: whole plant or invertebrate. To be noted: 144 h, read-out: death rate. How it is done:
The formulations of Compounds of Present Invention 1-11, 1-19 and 1-23 as obtained in Formulation Example 5 were diluted with water, so as to have a concentration of the active ingredient of 500 ppm, to prepare a test drug solution.
(§1) A filter paper having a diameter of 5.5 cm was spread on the bottom of a polyethylene cup having the same diameter and 0.7 ml of the test drug solution was added dropwise onto the filter paper, and 30 mg of sucrose was uniformly placed as bait. Into the polyethylene cup, 2 male imagoes of Blattella germanica were released, and the cup was sealed with a lid. After 6 days, the life and death of Blattella germanica was examined, the number of dead insects was counted, and the death rate was calculated according to the following equation. Death rate (%) = (Number of dead insects/Number of tested insects) × 100 [formula]

A further assay has as its system Culex pipiens pallens. The assay is described as follows: Test Example 10: Culex pipiens pallens larvae in treated water. Conditions: 24 h, active ingredient concentration 3.5 ppm in ion-exchanged water, last-instar larvae, one day later, read-out: death rate. An excerpt:
20 last-instar larvae of Culex pipiens pallens were released into the solution. One day later, the life and death of the Culex pipiens pallens was examined, and the number of dead insects was counted to calculate the death rate. Death rate (%) = (Number of dead insects/Number of tested insects) × 100 [formula]

Assay [2] deals with Aphis gossypii. Briefly: Test Example 1: foliar spray on cucumber seedling inoculated with Aphis gossypii. To be noted: 144 h, active ingredient 500 ppm, 20 ml sprayed on cucumber seedling, six days after spraying, read-out: control value. How it is done:
On the other hand, on a cucumber seedling (the first true leaf stage) planted in a plastic cup was inoculated with about 30 Aphis gossypii (whole stage), and left for a day. 20 ml of the test drug solution was sprayed on the seedling. Six days after spraying, the number of surviving Aphis gossypii parasitic on the leaves of the cucumber was examined, and the control value was calculated according to the following equation: Control value (%) = {1-(Cb×Tai)/(Cai×Tb)} × 100 [formula] wherein the symbols represent as follows: • Cb: the number of insects in a non-treated section before treatment • Cai: the number of surviving parasitic insects in a non-treated section on observation • Tb: the number of insects in a treated section before treatment • Tai: the number of surviving parasitic insects in a treated section on observation • wherein the non-treated section refers to a section where the test drug solution prepared by diluting the formulation obtained as in Formulation Example 5 but not containing the compound of the present invention with the same amount of water as in the treated section was sprayed.

The subject of assay [3] is Aphis gossypii. The assay is described as follows: Test Example 2: drench at foot of cucumber seedling, later inoculated with Aphis gossypii. Conditions: soil, 144 h, active ingredient 500 ppm, 5 ml drench at foot of cucumber seedling, 7 days at 25°C, then inoculated and kept 6 days, read-out: control value. How it is done:
On the other hand, a cucumber seedling (the second true leaf stage) planted in a plastic cup was drenched at its foot with 5 ml of the test drug solution, and kept in a greenhouse at 25°C for 7 days. On the cucumber leaf surface was inoculated about 30 Aphis gossypii (whole stage), and further kept in the greenhouse for 6 days, then the number of surviving Aphis gossypii parasitic on the leaves of the cucumber was examined, and the control value was calculated according to the following equation: Control value (%) = {1-(Cb×Tai)/(Cai×Tb)} × 100 [formula] wherein the symbols represent as follows: • Cb: the number of insects in a non-treated section before treatment • Cai: the number of surviving parasitic insects in a non-treated section on observation • Tb: the number of insects in a treated section before treatment • Tai: the number of surviving parasitic insects in a treated section on observation • wherein the non-treated section refers to a section where the test drug solution prepared by diluting the formulation obtained as in Formulation Example 5 but not containing the compound of the present invention with the same amount of water as in the treated section was sprayed.

Assay [4] deals with Nilaparvata lugens. The assay is described as follows: Test Example 3: spray on rice seedling, Nilaparvata lugens larvae released. To be noted: 144 h, active ingredient 500 ppm, 10 ml sprayed on rice seedling, third-fourth instar larvae, after 6 days, read-out: control value.
For assay [5], the system named is Adoxophyes orana fasciata. Briefly: Test Example 7: spray on apple tree, Adoxophyes orana fasciata larvae released. Conditions: in Malus domestica, 168 h, active ingredient 500 ppm, 20 mL/cup sprayed on apple tree, first-instar larvae, after 7 days, read-out: death rate. How it is done:
The formulations of Compounds of Present Invention 1-1 to 1-6, 1-10, 1-21, 1-28, 1-31 to 1-34, 1-39 and 1-42 as obtained in Formulation Example 5 were diluted with water, so as to have a concentration of the active ingredient of 500 ppm, to prepare a test spray solution.
On the other hand, an apple tree was planted in a plastic cup, and grown until the seventh-eighth true leaf was spread. To the apple tree was sprayed, at a rate of 20 mL/cup, the test drug solution. After the drug solution was dried, 60 first-instar larvae of Adoxophyes orana fasciata were released, and covered with a plastic cup the bottom of which was cut off and on which a filter paper was put, with the plastic cup cover placed upside-down. After 7 days, the number of dead insects was counted, and the death rate was calculated according to the following equation. Death rate (%) = (Number of dead insects/Number of tested insects) × 100 [formula]

A further assay relates to Musca domestica. Briefly: whole plant or invertebrate. Conditions: 24 h, read-out: death rate. How it is done: The formulations of Compounds of Present Invention 1-1, 1-40 and 1-42 as obtained in Formulation Example 5 were diluted with water, so as to have a concentration of the active ingredient of 500 ppm, to prepare a test drug solution.
as §1, with “10 female” for “2 male”, “Musca domestica” for “Blattella germanica”, “24 hours,” for “6 days,”

Each structure is given as a SMILES string. Some results are limits rather than exact numbers.

On to `CCN(CC)C(=O)c1cnc(-c2nc3cc(C(F)(F)F)cnc3n2C)c(S(=O)(=O)CC)c1` [Compound of Present Invention 1-11, N,N-diethyl-5-ethylsulfonyl-6-(3-methyl-6-trifluoromethyl-3 H-imidazo[4,5-b]pyridin-2-yl)nicotinamide], for which the mortality at 500 ppm was at least 90% with Nilaparvata lugens [1], at least 80% with Plutella xylostella and 100% in the assay with Blattella germanica. For the same molecule, the mortality at 3.5 ppm with Culex pipiens pallens is at least 95%.
Consider `CCS(=O)(=O)c1cc(C(=O)NC)cnc1-c1nc2cc(C(F)(F)F)cnc2n1C` [Compound of Present Invention 1-19], for which the mortality at 500 ppm with Aphis gossypii [2] is at least 90%; with Aphis gossypii [3] it was at least 90%; in the assay on Nilaparvata lugens [1], at least 90%; in the assay on Blattella germanica, 100%. Further, in the assay on Culex pipiens pallens, the mortality at 3.5 ppm is at least 95%.
Regarding `CCS(=O)(=O)c1cc(C(=O)N(C)C)cnc1-c1nc2cc([S+]([O-])C(F)(F)F)ccc2o1` (stereo not drawn) [Compound of Present Invention 1-42], the mortality at 500 ppm with Aphis gossypii [3] was at least 90%; with Nilaparvata lugens [4] it was at least 90%; in the assay on Nilaparvata lugens [1], at least 90%; in the assay on Plutella xylostella it was at least 80%; in assay [5], at least 90%; in the assay with Musca domestica it was 100%.
